The source made the active and inactive calls. No cut-off for these calls is given here.

The test system of data set [1] is RAW264.7. Put plainly: Anti-inflammatory activity in mouse RAW264.7 cells assessed as inhibition of LPS-induced NO production preincubated for 2 hrs followed by LPS addition and measured after 18 hrs by Griess reagent-based assay. The format is functional, cell-based.
The test system of data set [2] is RAW264.7. Put plainly: Anti-inflammatory activity in mouse RAW264.7 cells assessed as inhibition of LPS-induced iNOS level after 16 hrs by Western blot analysis. The format is functional, cell-based.
The test system of data set [3] is RAW264.7. The data set can be described thus: Anti-inflammatory activity in mouse RAW264.7 cells assessed as inhibition of LPS-induced IL-1beta level after 24 hrs by ELISA. The format is functional, cell-based.
Data set [4] deals with RAW264.7. The data set can be described thus: Anti-inflammatory activity in mouse RAW264.7 cells assessed as inhibition of LPS-induced TNF-alpha level after 24 hrs by ELISA. It is filed as functional, cell-based.
Data set [5] deals with T1, Inhibitor of nuclear factor kappa-B kinase subunit alpha (Mus musculus) (UniProt Q60680).
T1 sequence (whole entry): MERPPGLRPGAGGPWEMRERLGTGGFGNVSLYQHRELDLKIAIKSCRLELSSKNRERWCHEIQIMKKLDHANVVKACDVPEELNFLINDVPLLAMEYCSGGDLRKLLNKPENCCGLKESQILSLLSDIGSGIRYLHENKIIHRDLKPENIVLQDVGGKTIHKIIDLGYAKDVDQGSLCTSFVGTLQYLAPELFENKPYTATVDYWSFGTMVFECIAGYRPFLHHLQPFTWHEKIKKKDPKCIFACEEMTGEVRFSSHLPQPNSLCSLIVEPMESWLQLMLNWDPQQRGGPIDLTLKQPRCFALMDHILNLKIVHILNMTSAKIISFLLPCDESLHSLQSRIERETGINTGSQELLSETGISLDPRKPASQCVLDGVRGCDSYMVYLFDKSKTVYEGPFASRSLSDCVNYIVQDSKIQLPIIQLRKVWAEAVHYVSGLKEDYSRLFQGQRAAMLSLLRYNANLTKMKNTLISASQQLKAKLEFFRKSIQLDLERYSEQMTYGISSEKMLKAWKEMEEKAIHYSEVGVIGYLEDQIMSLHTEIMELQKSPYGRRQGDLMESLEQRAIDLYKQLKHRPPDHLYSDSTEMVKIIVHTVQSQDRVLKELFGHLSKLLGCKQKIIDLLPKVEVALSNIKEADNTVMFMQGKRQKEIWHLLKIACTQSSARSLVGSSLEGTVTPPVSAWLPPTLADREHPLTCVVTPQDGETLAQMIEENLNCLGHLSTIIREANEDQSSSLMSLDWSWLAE
Put plainly: Inhibition of IKKalpha in mouse RAW264.7 cells assessed as inhibition of LPS-induced IKK-alpha phosphorylation level after 16 hrs by Western blot analysis. It is filed as cell-based.

In data set [6] the test system is RAW264.7. The data set can be described thus: Cytotoxicity against mouse RAW264.7 cells assessed as reduction in cell viability at 3.1 to 25 uM after 48 hrs by MTT assay. It is filed as cell-based. As to conditions: raw264.7, 48 h, dose 3.1-25 µM.
Data set [7] concerns RAW264.7. The data set can be described thus: Anti-inflammatory activity in mouse RAW264.7 cells assessed as inhibition of LPS-induced COX-2 level after 16 hrs by Western blot analysis. The format is functional, cell-based.
The test system of data set [8] is RAW264.7. The data set can be described thus: Anti-inflammatory activity in mouse RAW264.7 cells assessed as inhibition of LPS-induced IL-6 level after 24 hrs by ELISA. The format is functional, cell-based.
Data set [9] has as its target T2, Inhibitor of nuclear factor kappa-B kinase subunit beta (Mus musculus) (UniProt O88351).
T2 sequence (whole entry): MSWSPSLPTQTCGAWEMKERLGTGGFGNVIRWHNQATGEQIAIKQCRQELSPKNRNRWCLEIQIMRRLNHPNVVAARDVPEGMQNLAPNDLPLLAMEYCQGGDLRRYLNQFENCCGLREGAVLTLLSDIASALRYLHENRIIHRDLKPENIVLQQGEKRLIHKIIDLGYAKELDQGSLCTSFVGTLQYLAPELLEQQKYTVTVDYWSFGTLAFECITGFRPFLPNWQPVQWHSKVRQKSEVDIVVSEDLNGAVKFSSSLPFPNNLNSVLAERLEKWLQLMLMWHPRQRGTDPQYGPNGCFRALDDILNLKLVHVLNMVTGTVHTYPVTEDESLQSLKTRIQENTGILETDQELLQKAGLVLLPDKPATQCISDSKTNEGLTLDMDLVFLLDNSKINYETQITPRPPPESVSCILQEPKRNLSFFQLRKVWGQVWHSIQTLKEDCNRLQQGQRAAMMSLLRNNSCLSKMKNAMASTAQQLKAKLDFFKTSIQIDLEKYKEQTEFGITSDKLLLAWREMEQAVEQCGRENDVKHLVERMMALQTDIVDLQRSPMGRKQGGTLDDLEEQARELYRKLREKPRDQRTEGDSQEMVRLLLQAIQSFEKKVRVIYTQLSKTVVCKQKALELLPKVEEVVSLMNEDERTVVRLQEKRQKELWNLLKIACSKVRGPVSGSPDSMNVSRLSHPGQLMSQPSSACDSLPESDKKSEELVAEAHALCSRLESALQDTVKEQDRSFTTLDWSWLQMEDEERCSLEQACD
Put plainly: Inhibition of IKKbeta in mouse RAW264.7 cells assessed as inhibition of LPS-induced IKK-beta phosphorylation level after 16 hrs by Western blot analysis. The format is cell-based.

As for `C[C@@H]1C[C@H]2[C@@H]3CCC4=CC(=O)C=C[C@]4(C)[C@@]3(F)[C@@H](O)C[C@]2(C)[C@@]1(O)C(=O)CO` [DEXAMETHASONE], in the data set with RAW264.7 [1], the IC50 is 24.3 µM.

With `CC(=O)O[C@@H]1CC[C@]2(C)C(CCC3=CCOC3=O)=C(C)C(=O)[C@@H](O)[C@H]2C1(C)C`, the IC50 in the data set on RAW264.7 [1] is above 50 µM.

On to `COC(OC)[C@@]1(C)CCC[C@@]2(C)[C@H]1CC=C(C)[C@@H]2CC/C(C)=C/CO`, for which, in the data set on RAW264.7 [1], the IC50 is above 50 µM.

Consider `CC1=CC[C@H]2[C@@](C)(CO)CCC[C@]2(C)[C@H]1CC/C(C)=C/CO`, for which the IC50 in the data set with RAW264.7 [1] stood at 33.4 µM.

Consider `CC1=CC[C@@H]2[C@](C)(CCC[C@]2(C)C(=O)O)[C@H]1CC/C(C)=C/CO`, for which, in the data set with RAW264.7 [1], the IC50 came out at 41.1 µM.

On to `CC1=CC[C@H]2C(C)(C)CCC[C@]2(C)[C@H]1CC/C(C)=C/CO`, for which the IC50 in the data set with RAW264.7 [1] stood at 20 µM.

Turning to `CC1=C(CCc2ccoc2)[C@@]2(C)CC[C@@H](O)C(C)(C)[C@@H]2[C@H](O)C1=O`, in the data set on RAW264.7 [1], the IC50 is above 50 µM.

As to `CC1=C(CCc2ccoc2)[C@@]2(C)CCCC(C)(C)[C@@H]2[C@H](O)C1=O`, the IC50 in the data set on RAW264.7 [1] is above 50 µM.

Regarding `CC1=C(CCc2ccoc2)[C@@]2(C)CCC(=O)C(C)(C)C2=C(O)C1=O`, the IC50 with RAW264.7 [1] is above 50 µM.

On to `CCOC1CC(O)(CCC2=C(C)C(=O)C(O)=C3C(C)(C)[C@H](OC(C)=O)CC[C@]23C)CO1` (stereo partly specified), for which the IC50 with RAW264.7 [1] stood at 21.7 µM.

In the case of `CCC(O)C(=O)[C@H]1C(C)(C)CCC[C@]1(C)C(=O)CCC1=CCOC1=O` (stereo partly specified), in the data set on RAW264.7 [1], the concentration for half-maximal inhibition (IC50) is above 50 µM.

`CO[C@H]1C=C(CCC2=C(C)C(=O)C(O)=C3C(C)(C)C(=O)CC[C@]23C)C(=O)O1`: the IC50 in the data set on RAW264.7 [1] was above 50 µM.

For `CC1=CC[C@@H]2[C@](C)(CCC[C@]2(C)C=O)[C@H]1CC/C(C)=C/CO`, the concentration for half-maximal inhibition (IC50) in the data set with RAW264.7 [1] came to 29 µM.

Turning to `C=C1CC[C@H]2C(C)(C)CCC[C@]2(C)[C@H]1CC/C(C)=C/CO`, the IC50 in the data set on RAW264.7 [1] was 33.4 µM.

As to `CCC(=O)[C@H]1O/C(=C\Cc2ccoc2)[C@@]2(C)CCCC(C)(C)[C@H]12`, in the data set with RAW264.7 [1], the half-maximal inhibitory concentration (IC50) is above 50 µM.

For `CCOC1CC(O)(CCC2=C(C)C(=O)[C@@H](O)[C@H]3C(C)(C)CCC[C@]23C)CO1` (stereo partly specified), the IC50 in the data set with RAW264.7 [1] was above 50 µM.

Consider `CC1=C(CCc2ccoc2)[C@@]2(C)CCC(=O)C(C)(C)[C@@H]2[C@@H](O)C1=O`, for which the concentration for half-maximal inhibition (IC50) in the data set with RAW264.7 [1] is above 50 µM.

As for `CCC(=O)[C@H]1O[C@@](CCc2ccoc2)(OC)[C@@]2(C)CCCC(C)(C)[C@H]12`, the concentration for half-maximal inhibition (IC50) in the data set with RAW264.7 [1] was above 50 µM.

In the case of `CC(=O)O[C@@H]1CC[C@@]2(C)[C@@H](C(=O)[C@H](O)[C@@H](C)[C@]2(O)CCc2ccoc2)C1(C)C`, in the data set on RAW264.7 [1], the IC50 was above 50 µM.

As to `CCOC1CC(O)(CCC2=C(C)C(=O)C(O)=C3C(C)(C)C(=O)CC[C@]23C)CO1` (stereo partly specified), the IC50 in the data set with RAW264.7 [1] came out at 22.9 µM.

Take `C[C@@H]1C(=O)C(O)=C2C(C)(C)C(=O)CC[C@]2(C)[C@@]1(O)CCc1ccoc1`: the IC50 in the data set on RAW264.7 [1] is above 50 µM.

In the case of `CC1=C(CCc2ccoc2)[C@@]2(C)CCCC(C)(C)C2=C(O)C1=O`, the IC50 in the data set on RAW264.7 [1] is 46.1 µM.

On to `CCC(=O)[C@H]1O[C@@](CCC2=CC(OC)OC2=O)(OC)[C@@]2(C)CCCC(C)(C)[C@H]12` (stereo partly specified), for which the inhibition result (in the data set with RAW264.7 [2]; in [5]; in the data set on RAW264.7 [7]; in data set [9]) was “Active” each time. Moreover, the inhibition entry in the data set with RAW264.7 [3], in the data set with RAW264.7 [4] and with RAW264.7 [8] was “Dose-dependent effect” in each case. Also, the Activity result in the data set with RAW264.7 [6] is listed as “Non-Toxic”. Further, in the data set with RAW264.7 [1], the concentration for half-maximal inhibition (IC50) stood at 3.9 µM.

On to `CCC(=O)C1O[C@](O)(CCc2ccoc2)[C@@]2(C)CCCC(C)(C)[C@H]12` (single isomer, unassigned), for which, in the data set on RAW264.7 [1], the IC50 was above 50 µM.

As to `CCOC1CC(O)(CCC2=C(C)C(=O)[C@@H](O)[C@H]3C(C)(C)[C@H](OC(C)=O)CC[C@]23C)CO1` (stereo partly specified), in the data set with RAW264.7 [1], the IC50 was 30.4 µM.

Turning to `CO[C@@H]1C=C(CCC2=C(C)C(=O)C(O)=C3C(C)(C)C(=O)CC[C@]23C)C(=O)O1`, in the data set on RAW264.7 [1], the concentration for half-maximal inhibition (IC50) was above 50 µM.

Take `CCC(=O)[C@H]1O[C@](O)(CCC2=CC(OC)OC2=O)[C@@]2(C)CCCC(C)(C)[C@H]12` (stereo partly specified): in the data set with RAW264.7 [1], the IC50 is 15.7 µM.

As for `C[C@H]1C(=O)[C@@H](O)[C@H]2C(C)(C)C(=O)CC[C@]2(C)[C@@]1(O)CCc1ccoc1`, the concentration for half-maximal inhibition (IC50) with RAW264.7 [1] is above 50 µM.

On to `CC1=C(CCC2=CCOC2=O)[C@@]2(C)CCCC(C)(C)[C@@H]2CC1=O`, for which, in the data set on RAW264.7 [1], the IC50 turned out to be 43.9 µM.

With `COC1C=C(CCC2=C(C)C(=O)C(O)=C3C(C)(C)[C@H](OC(C)=O)CC[C@]23C)C(=O)O1` (stereo partly specified), the half-inhibitory concentration (IC50) with RAW264.7 [1] came to 40.8 µM.

With `CCC(O)C(=O)[C@H]1C(C)(C)C(=O)CC[C@]1(C)C(=O)CCc1ccoc1` (stereo partly specified), the half-inhibitory concentration (IC50) with RAW264.7 [1] is above 50 µM.

On to `COC1C=C(CCC2=C(C)C(=O)[C@@H](O)[C@H]3C(C)(C)[C@H](O)CC[C@]23C)C(=O)O1` (stereo partly specified), for which the IC50 in the data set on RAW264.7 [1] came out at 27.5 µM.

As for `COC1C=C(CC[C@@]2(O)[C@H](C)C(=O)[C@@H](O)[C@H]3C(C)(C)CCC[C@@]32C)C(=O)O1` (stereo partly specified), the IC50 with RAW264.7 [1] was 24.7 µM.

Turning to `COC1CC(O)(CCC2=C(C)C(=O)[C@@H](O)[C@H]3C(C)(C)CCC[C@]23C)CO1` (stereo partly specified), in the data set on RAW264.7 [1], the half-inhibitory concentration (IC50) is 26.4 µM.

Consider `C[C@@H]1[C@@H](O)C(=O)[C@H]2C(C)(C)CCC[C@]2(C)[C@@]1(O)CCc1ccoc1`, for which the 50% inhibitory concentration (IC50) in the data set with RAW264.7 [1] was above 50 µM.

Take `CCC(=O)[C@H]1O[C@@](CCC2=CC(OC)OC2=O)(OC)[C@@]2(C)CC[C@@H](OC(C)=O)C(C)(C)[C@H]12` (stereo partly specified): in the data set with RAW264.7 [1], the half-maximal inhibitory concentration (IC50) is above 50 µM.

`CCC(=O)[C@H]1O[C@@](CCC2=CCOC2=O)(OC)[C@@]2(C)CCCC(C)(C)[C@H]12`: the half-inhibitory concentration (IC50) with RAW264.7 [1] was found to be 21.9 µM.

With `CC(=O)O[C@@H]1CC[C@]2(C)C(CCc3ccoc3)=C(C)C(=O)[C@@H](O)[C@H]2C1(C)C`, the 50% inhibitory concentration (IC50) in the data set on RAW264.7 [1] came to 22.5 µM.

The values above are taken from ChEMBL document CHEMBL4665814, “Structurally Diverse Labdane Diterpenoids from Leonurus japonicus and Their Anti-inflammatory Properties in LPS-Induced RAW264.7 Cells” (J Nat Prod, 2020).
